Experimental data published in patent publication US9353096B2, “Substituted phenylcarbamate compounds” (Hoffmann-La Roche Inc., priority 2012, dated 2016).
Where a name gives a salt, the structure may show the parent alone.

Target: hTRPA1 (Homo sapiens, UniProt O75762)
Test: Dose response calcium flux (FLIPR) assay, ChanTest hTRPA1-CHO stably transfected cell line, cinnamaldehyde agonist
Type: cell-based
Settings: CHO-K1 Tet-On hTRPA1 cells, 100 uM cinnamaldehyde agonist, 30 min preincubation
Method: Dose Response Assay:ChanTest hTRPA1-CHO Stably Transfected Cell Line
CHO-K1 Tet-On_HOMSA_TRPA1_Clone_20
Growth Media for CHO-K1 Tet-On_HOMSA_TRPA1_Clone_20 • Ham's F-12 with 10% tetracycline-free FBS • 1× penicillin-streptomycin • 1× glutamax • 0.01 mg/ml Blasticidin • 0.40 mg/ml Zeocin • The cell line doubling rate was ˜15 h. […] Experiments were run at 24 h post induction.
Plating Conditions CHOK1/TRPA1 Cells: • Harvested cells with 0.025% trypsin/EDTA. • Resuspended cells in growth media without selection antibiotics. • Measured cell density and diluted to 2.4×10^5 cells/ml in media containing 1 ug/ml Doxycycline Plate 25 ul/well into 384 well black/clear tissue culture-treated plates. • Incubated overnight at 37° C.
Replacement Buffer: Hank's Balanced Salt Solution, 20 mM HEPES along with 0.005% BSA and 2× Probenecid
Dye Loading Buffer: Cal-3 NW Calcium dye was prepared by dissolving the contents of one vial with […] Hank's Balanced Salt Solution containing 20 mM HEPES.
AP-18, stock 10 mM, prepare 3.5× compound dilution in a Compound Buffer (HBSS/20 mM HEPES/0.005% BSA)—final concentration 10 uM.
Preparation of Cinnamaldehyde (Agonist Addition): • FW=132.16 • Specific gravity=1.046 gm/cc • 1.32 gm/1.046 gm/cc=1.26 ml of stock • Add 1.74 ml DMSO=3.3 M stock • Working solution 4.5× (final 100 uM in Compound Buffer: HBSS/20 mM HEPES/0.005% BSA)
Compounds dilutions were prepared from 5 or 10 mM stock (100% DMSO): • Adjustments of volumes and concentrations were made at time of titration to reflect desired final assay concentrations. • Compounds were tested at either 20 μM three folds dilution 11 steps out or 30 μM two folds dilution 11 steps out. • 3 μl of diluted compound were transferred into Weidmann 384-well plate in duplicates side-by-side. • Compound plates were resuspended with 100 ul of HBSS/20 mM HEPES/0.005% BSA buffer (Compound Buffer): • column 1A-H: buffer/DMSO (bk) • column 2A-H: AP-18 (control antagonist for CHOK1 TRPA1 cells) • column 1I-P: ATP (control for CHOK1 teton cells) • column 2I-P: 2APB (control antagonist for CHOK1/TRPM8 cells).
Growth media was removed from the cell plates (20 ul) and 20 μl of the Replacement Buffer was added followed by addition of 25 μl of diluted dye. All three steps were performed using a Plate Washer BioTek 407. The plates were then incubated for 30′ at RT.
After incubation, both the cell and compound plates were brought to the FLIPR and 20 μl of the diluted compounds/antagonist/bk were transferred to the cell plates by the FLIPR. Plates were then incubated for 30′ at room temperature. After 30′ incubation, plates were returned to the FLIPR and 20 μl of 4.5× Cinnamaldehyde was added to the cell plates. During the compound addition as well as agonist addition, fluorescence readings were taken simultaneously from all 384 wells of the cell plate every 1.5 seconds. Five readings were taken to establish a stable baseline, then 20 μl of sample was rapidly (30 ul/sec) and simultaneously added to each well of the cell plate. The fluorescence was continuously monitored before, during and after sample/agonist addition for a total elapsed time of 100 seconds (compound addition) and 120 seconds (agonist addition). Responses (increase in peak fluorescence) in each well following agonist addition was determined. The initial fluorescence reading from each well, prior to ligand stimulation, was used a zero baseline value for the data from that well.

hTRPA1, sequence (O75762 whole entry): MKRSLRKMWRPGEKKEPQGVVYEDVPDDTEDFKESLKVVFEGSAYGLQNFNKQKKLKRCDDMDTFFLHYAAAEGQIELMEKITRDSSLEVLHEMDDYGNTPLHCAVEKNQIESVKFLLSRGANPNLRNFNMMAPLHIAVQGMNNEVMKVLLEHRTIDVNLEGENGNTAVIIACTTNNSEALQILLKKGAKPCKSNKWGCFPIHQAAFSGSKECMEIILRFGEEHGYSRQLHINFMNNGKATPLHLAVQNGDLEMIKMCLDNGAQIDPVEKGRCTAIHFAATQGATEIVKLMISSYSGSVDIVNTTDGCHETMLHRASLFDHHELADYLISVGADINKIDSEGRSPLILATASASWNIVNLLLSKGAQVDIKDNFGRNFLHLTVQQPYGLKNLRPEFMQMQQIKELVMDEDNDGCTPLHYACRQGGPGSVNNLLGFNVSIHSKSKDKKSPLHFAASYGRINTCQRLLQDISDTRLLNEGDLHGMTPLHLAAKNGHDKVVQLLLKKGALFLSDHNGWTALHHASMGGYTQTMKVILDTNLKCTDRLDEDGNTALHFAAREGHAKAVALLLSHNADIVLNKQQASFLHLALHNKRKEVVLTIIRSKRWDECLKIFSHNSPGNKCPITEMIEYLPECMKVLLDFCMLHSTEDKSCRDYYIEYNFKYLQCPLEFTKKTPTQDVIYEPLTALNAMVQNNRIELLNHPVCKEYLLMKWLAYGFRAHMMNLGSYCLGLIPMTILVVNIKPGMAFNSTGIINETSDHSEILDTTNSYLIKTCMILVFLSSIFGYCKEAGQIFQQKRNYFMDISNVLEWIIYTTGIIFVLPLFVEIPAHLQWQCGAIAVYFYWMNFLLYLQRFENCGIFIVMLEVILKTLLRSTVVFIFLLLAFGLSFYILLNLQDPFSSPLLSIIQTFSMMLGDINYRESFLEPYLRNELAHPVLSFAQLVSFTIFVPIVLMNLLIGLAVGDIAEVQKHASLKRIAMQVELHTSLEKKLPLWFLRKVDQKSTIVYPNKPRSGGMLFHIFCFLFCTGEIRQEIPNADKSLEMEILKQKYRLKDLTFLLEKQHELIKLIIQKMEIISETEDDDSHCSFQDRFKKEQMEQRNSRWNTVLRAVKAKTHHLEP

Row | IC50 [nM] | SMILES
1 | 3580 | O=C(Nc1ccc(Cl)cc1)O[C@@H](CN1CCO[C@@H](Cc2ccccc2)C1)C(F)(F)F (single isomer, unassigned) [Example 10, hydrochloride]
2 | 803 | COc1cccc([C@H]2CN(C[C@H](OC(=O)Nc3ccc(Cl)cc3)C(F)(F)F)CCO2)c1 (single isomer, unassigned) [Example 15]
3 | 191 | O=C(Nc1ccc(Cl)cc1)O[C@@H](CN1CCS(=O)(=O)[C@@H](c2cccc(C(F)(F)F)c2)C1)C(F)(F)F (single isomer, unassigned) [Example 19]
4 | 1100 | O=C(Nc1ccc(Cl)c(F)c1)O[C@@H](CN1CCS(=O)(=O)[C@@H](c2cccc(C(F)(F)F)c2)C1)C(F)(F)F (single isomer, unassigned) [Example 21]
5 | 781 | O=C(Nc1ccc(Cl)c(F)c1)O[C@@H](CN1CCO[C@@H](c2ccc(C(F)(F)F)nc2)C1)C(F)(F)F (single isomer, unassigned) [Example 23, hydrochloride]
6 | 846 | CC(C)c1nccc([C@H]2CN(C[C@H](OC(=O)Nc3ccc(Cl)c(F)c3)C(F)(F)F)CCO2)n1 (single isomer, unassigned) [Example 26, hydrochloride]
7 | 198 | O=C(Nc1ccc(Cl)cc1)O[C@@H](CN1CCO[C@@H](c2ccc(C(F)(F)F)cc2)C1)C(F)(F)F (single isomer, unassigned) [Example 30, hydrochloride]
8 | 196 | O=C(Nc1ccc(Cl)c(F)c1)O[C@@H](CN1CCO[C@@H](c2ccc(F)c(F)c2)C1)C(F)(F)F (single isomer, unassigned) [Example 35, hydrochloride]
9 | 4.91 | O=C(Nc1ccc(Cl)cc1)O[C@@H](CN1CCO[C@H](c2ccc(F)c(C(F)(F)F)c2)C1)C(F)(F)F [Example 1, (4-Chlorophenyl)-carbamic acid (S)-2,2,2-trifluoro-1-[(R)-2-(4-fluoro-3-trifluoromethylphenyl)-morpholin-4-ylmethyl]-ethyl ester hydrochloride]
10 | 8.5 | O=C(Nc1ccc(Cl)cc1)O[C@@H](CN1CCOC(c2ccc(F)c(C(F)(F)F)c2)C1)C(F)(F)F (stereo partly drawn) [Example 2, (4-Chlorophenyl)-carbamic acid (S)-2,2,2-trifluoro-1-[2-(4-fluoro-3-trifluoromethylphenyl)-morpholin-4-ylmethyl]-ethyl ester hydrochloride]
11 | 14.3 | O=C(Nc1ccc(Cl)c(F)c1)O[C@@H](CN1CCO[C@H](c2ccc(F)c(C(F)(F)F)c2)C1)C(F)(F)F [Example 3, (4-Chloro-3-fluorophenyl)-carbamic acid (S)-2,2,2-trifluoro-1-[(R)-2-(4-fluoro-3-trifluoromethylphenyl)-morpholin-4-ylmethyl]-ethyl ester hydrochloride]
12 | 42.4 | O=C(Nc1ccc(Cl)c(F)c1)O[C@@H](CN1CCO[C@H](c2ccc(Cl)c(F)c2)C1)C(F)(F)F [Example 4, (4-Chloro-3-fluorophenyl)-carbamic acid (S)-1-[(R)-2-(4-chloro-3-fluorophenyl)-morpholin-4-ylmethyl]-2,2,2-trifluoroethyl ester hydrochloride]
13 | 30.7 | O=C(Nc1ccc(Cl)c(F)c1)O[C@@H](CN1CCO[C@H](c2ccc(F)c(Cl)c2)C1)C(F)(F)F [Example 5, (4-Chloro-3-fluorophenyl)-carbamic acid (S)-1-[(R)-2-(3-chloro-4-fluorophenyl)-morpholin-4-ylmethyl]-2,2,2-trifluoroethyl ester hydrochloride]
14 | 50.5 | O=C(Nc1ccc(Cl)c(F)c1)O[C@@H](CN1CCO[C@H](c2cccc(Cl)c2)C1)C(F)(F)F [Example 6, (4-Chloro-3-fluorophenyl)-carbamic acid (S)-1-[(R)-2-(3-chlorophenyl)-morpholin-4-ylmethyl]-2,2,2-trifluoroethyl ester hydrochloride]
15 | 47 | O=C(Nc1ccc(Cl)c(F)c1)O[C@@H](CN1CCO[C@H](c2cccc(Cl)c2)C1)C(F)(F)F [Example 7, (4-Chloro-3-fluorophenyl)-carbamic acid (S)-1-[(R)-2-(3-chlorophenyl)-morpholin-4-ylmethyl]-2,2,2-trifluoroethyl ester hydrochloride]
16 | 597 | O=C(Nc1ccc(Cl)c(F)c1)O[C@@H](CN1CCO[C@@H](c2cccc(Cl)c2)C1)C(F)(F)F [Example 8, (4-Chloro-3-fluorophenyl)-carbamic acid (S)-1-[(S)-2-(3-chlorophenyl)-morpholin-4-ylmethyl]-2,2,2-trifluoroethyl ester hydrochloride]
17 | 121 | O=C(Nc1ccc(Cl)cc1)O[C@@H](CN1CCO[C@H](Cc2ccccc2)C1)C(F)(F)F [Example 9, (4-Chlorophenyl)-carbamic acid (S)-1-((R)-2-benzyl-morpholin-4-ylmethyl)-2,2,2-trifluoroethyl ester hydrochloride]
18 | 5.58 | O=C(Nc1ccc(Cl)cc1)O[C@@H](CN1CCO[C@H](c2cccc(C(F)(F)F)c2)C1)C(F)(F)F [Example 11, (4-Chlorophenyl)-carbamic acid (S)-2,2,2-trifluoro-1-[(R)-2-(3-trifluoromethylphenyl)-morpholin-4-ylmethyl]-ethyl ester hydrochloride]
19 | 108 | O=C(Nc1ccc(Cl)cc1)O[C@@H](CN1CCO[C@@H](c2cccc(C(F)(F)F)c2)C1)C(F)(F)F [Example 12, (4-Chlorophenyl)-carbamic acid (S)-2,2,2-trifluoro-1-[(S)-2-(3-trifluoromethylphenyl)-morpholin-4-ylmethyl]-ethyl ester hydrochloride]
20 | 6.35 | O=C(Nc1ccc(Cl)c(F)c1)O[C@@H](CN1CCO[C@H](c2cccc(C(F)(F)F)c2)C1)C(F)(F)F [Example 13, (4-Chloro-3-fluorophenyl)-carbamic acid (S)-2,2,2-trifluoro-1-[(R)-2-(3-trifluoromethylphenyl)-morpholin-4-ylmethyl]-ethyl ester hydrochloride]
21 | 36.1 | COc1cccc([C@@H]2CN(C[C@H](OC(=O)Nc3ccc(Cl)cc3)C(F)(F)F)CCO2)c1 [Example 14, (4-Chlorophenyl)-carbamic acid (S)-2,2,2-trifluoro-1-[(R)-2-(3-methoxyphenyl)-morpholin-4-ylmethyl]-ethyl ester]
22 | 152 | COc1cccc([C@@H]2CN(C[C@H](OC(=O)Nc3ccc(Cl)cc3)C(F)(F)F)CCS2(=O)=O)c1 [Example 16, (4-Chlorophenyl)-carbamic acid (S)-2,2,2-trifluoro-1-[(R)-2-(3-methoxyphenyl)-1,1-dioxo-1λ^6-thiomorpholin-4-ylmethyl]ethyl ester]
23 | 390 | COc1cccc(C2CN(C[C@H](OC(=O)Nc3ccc(Cl)cc3)C(F)(F)F)CCS2(=O)=O)c1 (stereo partly drawn) [Example 17, (4-Chlorophenyl)-carbamic acid (S)-2,2,2-trifluoro-1-[2-(3-methoxyphenyl)-1,1-dioxo-1λ^6-thiomorpholin-4-ylmethyl]-ethyl ester]
24 | 42.5 | O=C(Nc1ccc(Cl)cc1)O[C@@H](CN1CCS(=O)(=O)[C@H](c2cccc(C(F)(F)F)c2)C1)C(F)(F)F [Example 18, (4-Chlorophenyl)-carbamic acid (S)-1-[(R)-1,1-dioxo-2-(3-trifluoromethylphenyl)-1λ^6-thiomorpholin-4-ylmethyl]-2,2,2-trifluoroethyl ester]
25 | 74.3 | O=C(Nc1ccc(Cl)c(F)c1)O[C@@H](CN1CCS(=O)(=O)[C@H](c2cccc(C(F)(F)F)c2)C1)C(F)(F)F [Example 20, (4-Chloro-3-fluorophenyl)-carbamic acid (S)-1-[(R)-1,1-dioxo-2-(3-trifluoromethylphenyl)-1λ^6-thiomorpholin-4-ylmethyl]-2,2,2-trifluoroethyl ester]
